Measurements: US20210255193A1, “LYSINE REACTIVE PROBES AND USES THEREOF” (The Scripps Research Institute, priority 2017, published 2021)

Tests used:
Assay in all cases: competitive isoTOP-ABPP
[1] = target: T1, TPMT Thiopurine S-methyltransferase (Homo sapiens, UniProt P51580); type: binding; design: key to isoTOP-ABPP reactivity ratio at lysine P51580_K32: R = MS1 peak area ratio, DMSO (heavy) / compound-treated (light); settings: 50 uM, in vitro
T1 construct: isoTOP-ABPP experiments performed in cell lysates (in vitro); endogenous in cells; host or cells: soluble proteome of human cancer cell lines (MDA-MB-231; Ramos and Jurkat also prepared)
T1 sequence (P51580 1-245): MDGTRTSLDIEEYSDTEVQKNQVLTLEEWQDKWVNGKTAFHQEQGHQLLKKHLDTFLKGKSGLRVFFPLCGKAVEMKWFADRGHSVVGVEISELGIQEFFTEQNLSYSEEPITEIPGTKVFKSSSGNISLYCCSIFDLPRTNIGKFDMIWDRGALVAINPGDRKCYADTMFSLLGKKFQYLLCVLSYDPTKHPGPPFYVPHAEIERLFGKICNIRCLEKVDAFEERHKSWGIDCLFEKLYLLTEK
Procedure: (§1) In vitro covalent fragment treatment for isoTOP-ABPP. All compounds were made up as solutions in DMSO (100×) and were used at a final concentration of 50 μM for activated esters and 100 μM for guanidinylating agents. For each profiling sample, 0.5 ml of lysate was treated with 5 μl of the 100× compound stock solution or 5 μl of DMSO. Samples were treated with activated esters for
(§2) STP-alkyne labeling and click chemistry. For concentration-dependent reactivity measurements by isoTOP-ABPP, 0.5 ml proteome aliquots were treated at ambient temperature with 1 mM STP-alkyne 1 (5 μl of 100 mM stock in DMSO) and 0.1 mM STP alkyne 1 (5 μl of 10 mM stock in DMSO), respectively. For competitive isoTOP-ABPP, after in vitro fragment treatment (detailed above), the samples were labeled for 1 h at ambient temperature with 0.1 mM STP-alkyne 1 (5 μl of 10 mM stock in DMSO). Samples were conjugated by copper-mediated azide-alkyne cycloaddition (CuAAC) to either the light (1 mM STP-alkyne or fragment treated) or heavy (0.1 mM STP-alkyne or DMSO treated) TEV tags (10 μl of 5 mM stocks in DMSO, final concentration=100 μM) using tris(2-carboxyethyl)phosphine hydrochloride
(§3) R value calculation and processing. The ratios of light and heavy MS1 peaks for each unique peptide were quantified with a CIMAGE software using default parameters (3 MS1 acquisitions per peak and signal to noise threshold set to 2.5). For reactivity measurements by isoTOP-ABPP, the R value was calculated from the ratio of MS1 peak areas, comparing the 1 mM STP alkyne sample (light TEV tag) with the 0.1 mM STP alkyne sample (heavy TEV tag). For competitive isoTOP-ABPP, the R value was calculated from the ratio of MS1 peak areas, comparing the DMSO treated sample (heavy TEV tag) with the compound treated sample (light TEV tag). […] Ratios for unique peptide entries are calculated for each experiment; overlapping peptides with the same modified lysine (for example, different charge states, MudPIT chromatographic steps or tryptic termini) are grouped together and the median ratio is reported as the final ratio (R). The peptide ratios reported by CIMAGE were further filtered to ensure the removal or correction of low-quality ratios in each individual data set. The quality filters applied were the following: removal of half tryptic peptides; for ratios with high standard deviations from the median (90% of the median or above) the lowest ratio was taken instead of the median; removal of peptides with R=20 and only a single MS2 event triggered during the elution of the parent ion; manual annotation of all the peptides with ratios of 20, removing any peptides with low quality elution profiles that remained after the previous curation steps (only done for competitive isoTOP-ABPP).
(§4) Cross-data processing for fragment screening. For compound treated samples, biological replicates of the same condition were averaged, if the standard deviation was below 60% of the mean; otherwise, for lysines with at least one R value <4 for a particular compound, the lowest value of the ratio set was taken. For lysines, where all R values for a particular compound were ≥4, the average was reported. For peptides containing several possible modified lysines, the lysine with the highest number of quantification events was used for analysis and the remaining, redundant peptides were reported as alternative modification sites. Peptides included in the aggregate dataset (those used for further bioinformatics and statistical analyses) were required to have been quantified in 2 experiments for competitive isoTOP-ABPP. Lysines were categorized as liganded, if they had at least one ratio R≥4 (hit fragments). For liganded lysines with R=20 for all liganding events, lysines were required to have been quantified with R=20 in two separate experiments and were further required to have been quantified with R<20 in one additional experiment.

[2] = target: T2, AGFG1 Arf-GAP domain and FG repeat-containing protein 1 (Homo sapiens, UniProt P52594); type: binding; design: key to isoTOP-ABPP reactivity ratio at lysine P52594_K134: R = MS1 peak area ratio, DMSO (heavy) / compound-treated (light); settings: 50 uM, in vitro
T2 construct: isoTOP-ABPP experiments performed in cell lysates (in vitro); endogenous in cells; host or cells: soluble proteome of human cancer cell lines (MDA-MB-231, Ramos, Jurkat)
T2 sequence (P52594 1-562): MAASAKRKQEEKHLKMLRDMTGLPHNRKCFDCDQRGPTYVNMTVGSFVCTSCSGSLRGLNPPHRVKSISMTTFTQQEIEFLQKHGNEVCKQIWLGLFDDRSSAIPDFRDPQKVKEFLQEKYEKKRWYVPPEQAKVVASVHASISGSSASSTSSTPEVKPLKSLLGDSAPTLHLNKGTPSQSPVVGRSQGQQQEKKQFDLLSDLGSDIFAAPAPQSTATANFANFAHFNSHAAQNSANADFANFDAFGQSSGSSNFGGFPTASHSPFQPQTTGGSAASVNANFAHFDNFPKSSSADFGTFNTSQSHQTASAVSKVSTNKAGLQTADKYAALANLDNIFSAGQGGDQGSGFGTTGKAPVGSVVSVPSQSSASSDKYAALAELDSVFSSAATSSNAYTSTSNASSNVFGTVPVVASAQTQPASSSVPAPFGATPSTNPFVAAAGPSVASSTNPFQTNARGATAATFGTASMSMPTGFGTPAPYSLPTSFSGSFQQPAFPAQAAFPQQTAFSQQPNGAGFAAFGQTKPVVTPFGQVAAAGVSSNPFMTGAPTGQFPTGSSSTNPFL
Procedure: as §1, §2, §3, §4

[3] = target: T3, ABCE1 ATP-binding cassette sub-family E member 1 (Homo sapiens, UniProt P61221); settings: 50 uM, in vitro; for R value (DMSO/fragment) for probe 1 labeling / isoTOP-ABPP reactivity ratio at lysine P61221_K478 / isoTOP-ABPP reactivity ratio at lysine P61221_K191: 231 sol
T3 construct: isoTOP-ABPP experiments performed in cell lysates (in vitro); endogenous in cells; host or cells: soluble proteome of human cancer cell lines (MDA-MB-231, Ramos, Jurkat)
Procedure: as §1, §2, §3, §4

[4] = target: T4, PSME3 Proteasome activator complex subunit 3 (Homo sapiens, UniProt P61289); type: binding; design: key to isoTOP-ABPP reactivity ratio at lysine P61289_K237: R = MS1 peak area ratio, DMSO (heavy) / compound-treated (light); key to isoTOP-ABPP reactivity ratio at lysine P61289_K12: R = MS1 peak area ratio, DMSO (heavy) / compound-treated (light); capped at 20; settings: 50 uM, in vitro
T4 construct: isoTOP-ABPP experiments performed in cell lysates (in vitro); endogenous in cells; host or cells: soluble proteome of human cancer cell lines (MDA-MB-231, Ramos, Jurkat)
Procedure: as §1, §2, §3, §4

T4 sequence (P61289 whole entry, one chain of several): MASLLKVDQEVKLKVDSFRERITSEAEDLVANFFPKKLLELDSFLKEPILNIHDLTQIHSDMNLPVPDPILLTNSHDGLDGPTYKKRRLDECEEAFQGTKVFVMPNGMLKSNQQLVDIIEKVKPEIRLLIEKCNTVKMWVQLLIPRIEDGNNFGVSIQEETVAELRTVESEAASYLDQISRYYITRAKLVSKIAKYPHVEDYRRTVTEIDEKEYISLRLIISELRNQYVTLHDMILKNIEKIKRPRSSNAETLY

SMILES	isoTOP-ABPP reactivity ratio at lysine P51580_K32 ([1]; 231 sol)	isoTOP-ABPP reactivity ratio at lysine P52594_K134 ([2]; 231 sol)	isoTOP-ABPP reactivity ratio at lysine P61221_K478 [3]	isoTOP-ABPP reactivity ratio at lysine P61289_K237 ([4]; 231 sol)	isoTOP-ABPP reactivity ratio at lysine P61221_K191 [3]	isoTOP-ABPP reactivity ratio at lysine P61289_K12 ([4]; 231 sol)	other results
COc1cc(CCC(=O)Oc2c(F)c(F)c(F)c(F)c2F)cc(OC)c1OC [fragment 23, Pentafluorophenyl 3-(3,4,5-trimethoxyphenyl)propanoate]	–	–	–	–	–	–	R value (DMSO/fragment) for probe 1 labeling ([1]; P51580_K32, 231 sol): 6.4; R value (DMSO/fragment) for probe 1 labeling ([2]; P52594_K134, 231 sol): 1.7; R value (DMSO/fragment) for probe 1 labeling ([3]; P61221_K191): 1.3; R value (DMSO/fragment) for probe 1 labeling ([3]; P61221_K478): 1.5; R value (DMSO/fragment) for probe 1 labeling ([4]; P61289_K237, 231 sol): 0.5
O=C(Oc1c(F)c(F)c(F)c(F)c1F)C1CCN(C(=O)OCc2ccccc2)CC1 [fragment 24, 1-Benzyl 4-(pentafluorophenyl) piperidine-1,4-dicarboxylate]	1.0	1.5	1.4	0.2	–	–	–
O=C(Oc1c(F)c(F)c(F)c(F)c1F)c1ccc2ccccc2n1 [fragment 25, Pentafluorophenyl quinoline-2-carboxylate]	2.9	1.1	1.5	0.5	1.7	0.9	–
O=C(CCc1coc2cc(F)ccc2c1=O)Oc1c(F)c(F)c(F)c(F)c1F [fragment 26, Pentafluorophenyl 3-(7-fluoro-4-oxo-4H-chromen-3-yl)propanoate]	1.0	2.2	1.3	1.1	1.4	0.9	–
O=C(CN1C(=O)c2ccccc2C1=O)Oc1c(F)c(F)c(F)c(F)c1F [fragment 27, Pentafluorophenyl 2-(1,3-dioxoisoindolin-2-yl)acetate]	1.3	1.5	2.1	0.8	–	–	–
CCn1cc(C(=O)Oc2c(F)c(F)c(F)c(F)c2F)c(=O)c2ccc(C)nc21 [fragment 28, Pentafluorophenyl 1-ethyl-7-methyl-4-oxo-1,4-dihydro-1,8-naphthyridine-3-carboxylate]	1.1	1.0	1.0	0.6	–	1.0	–
O=C(CCc1cn(-c2ccccc2)nc1-c1ccccc1)Oc1ccc([N+](=O)[O-])cc1[N+](=O)[O-] [fragment 29, 2,4-Dinitrophenyl 3-(1,3-diphenyl-1H-pyrazol-4-yl)propanoate]	1.4	1.4	1.2	0.4	1.0	1.1	–
O=C(Oc1ccc([N+](=O)[O-])cc1[N+](=O)[O-])C(c1ccccc1)c1ccccc1 [fragment 30, 2,4-Dinitrophenyl 2,2-diphenylacetate]	1.5	14.3	1.1	4.3	1.1	–	–
O=C(Oc1ccc([N+](=O)[O-])cc1[N+](=O)[O-])c1cc(C(F)(F)F)cc(C(F)(F)F)c1 [fragment 31, 2,4-Dinitrophenyl 3,5-bis(trifluoromethyl)benzoate]	2.5	1.2	1.1	1.1	1.4	1.1	–
Cn1cc(CC(=O)Oc2ccc([N+](=O)[O-])cc2[N+](=O)[O-])c2ccccc21 [fragment 32, 2,4-Dinitrophenyl 2-(1-methyl-1H-indol-3-yl)acetate]	2.5	19.9	1.2	5.1	1.3	4.7	–
COc1cc(CCC(=O)Oc2ccc([N+](=O)[O-])cc2[N+](=O)[O-])cc(OC)c1OC [fragment 33, 2,4-Dinitrophenyl 3-(3,4,5-trimethoxyphenyl)propanoate]	3.7	20.0	1.2	1.1	1.1	2.1	–
O=C(Oc1ccc([N+](=O)[O-])cc1[N+](=O)[O-])C1CCN(C(=O)OCc2ccccc2)CC1 [fragment 34, 1-Benzyl 4-(2,4-dinitrophenyl) piperidine-1,4-dicarboxylate]	–	–	–	–	–	–	isoTOP-ABPP ratio (R) at liganded lysine P51580_K32 ([1]; sol, 231): 1.6; isoTOP-ABPP ratio (R) at liganded lysine P52594_K134 ([2]; sol, 231): 20.0; isoTOP-ABPP ratio (R) at liganded lysine P61221_K191 ([3]; sol, 231): 1.0; isoTOP-ABPP ratio (R) at liganded lysine P61221_K478 ([3]; sol, 231): 1.2; isoTOP-ABPP ratio (R) at liganded lysine P61289_K12 ([4]; sol, 231): 1.4
